From patent US20240052053A1, “ENHANCEMENT OF ANTIBODY-DEPENDENT CELL-MEDIATED CYTOTOXICITY (ADCC)” (IO Biotech ApS, priority 2017, published 2024) come the findings set out here.

Entries after “also recorded” stand apart in the source; their conditions may differ.

The test system of the assay is U266 myeloma cells. Briefly: 51Cr-release cytotoxic assay with PD-L1-specific CTLs. It is filed as cell-based, human. The following applies: U266 cells pretreated with IFN-γ. Here is the method:
The cytotoxicity assay was performed as in Example 1. Briefly, HLA-A2-positive CTLs that were specific to PD-L1 were thawed, rested over-night and used as effector cells against 51 Cr-labeled HLA-A2-positive U266 myeloma cells in different effector to target (E:T)-cell ratios.

With “IFN-γ: Interferon gamma, a major inducer of PD-L1 expression, used to pretreat U266 cells”, the “killing of U266 cells by PD-L1 specific CTLs after pretreatment” value was “more susceptible to being killed; also recorded: tendency towards increased killing”.
